{
  "source": "patent US6989435B2",
  "about": "“Compounds and methods to inhibit or augment an inflammatory response” (Cambridge University Technical Services Ltd., priority 1997, dated 2006)",
  "key": {"[1]": {"system": "MCP-1 induced THP-1 migration", "assay": "Trans-well THP-1 migration assay, MCP-1 as chemoattractant", "format": "cell-based, human", "settings": "concentrations above 50 μM", "description": "FIG. 1 is a schematic of the trans-well migration assay. In most experiments, the peptide (wavy line) is added to the upper well with about 50,000 cells (O). The upper and lower wells are separated by a 5 μm or 8 μm pore size PVP-free membrane (- - - -). Chemokine (●) is added to the lower well. After 4 hours, the number of cells that have migrated through the membrane are measured (◯ in lower well).\nTo determine whether an agent inhibits a chemokine-induced activity, such as macrophage recruitment, varying amounts of the agent are mixed with cells in the presence of a known chemoattractant. For example, a range of known concentrations of an agent, e.g., a chemokine peptide, is incubated with a defined number (e.g., 10^4-10^6) of human THP-1 monocyte cells in individual wells of the top compartment of a trans-well plate. Chemokine (such as MCP-1, MIP1α, IL8 or SDF-1α), at a concentration known to cause significant migration of THP-1 cells in the trans-well migration assay, is placed in the lower compartment (FIG. 1). Cells are then incubated at 37° C. for a period sufficient to allow migration, e.g., 4 hours. After incubation, the cells are gently removed from the top of the filter with a pipette, 20 μl of 20 mM EDTA in simple PBS is added into each top well, and incubated for 20 minutes at 4° C. The filter is carefully flushed with media using a gentle flow, and removed. A standard curve consisting of a two-fold dilution series of THP-1 cells (in 29 μl) is prepared to accurately quantify the number of cells that have migrated. Migrated cells are stained with 3 μl of MTT stock dye solution which is added directly into each well (5 mg/ml in RPMI-1640 without phenol red, Sigma Chemical Co.) and incubated at 37° C. for 4 hours. The media is carefully aspirated from each well, and the converted dye is solubilized by 20 μl of DMSO. Absorbance of converted dye is measured at a wavelength of 595 nm using an ELISA plate reader. The number of migrated cells in each well is then determined by interpolation of the standard curve (see also Imai et al., J. Biol. Chem., 272, 15036 (1997)).\nAny method suitable for counting cells can be used, for example, counting with a hemocytometer, incubation of the cells with MTT (see above), or FACS analysis. A negative control assay is also performed, using TGF-β or another non-chemokine chemoattractant (e.g., IL1β or TNFα). To assess whether the agent is cytotoxic, the same concentrations of agent are incubated with THP-1 cells. Agents which 1) are not cytotoxic at levels which inhibit migration, 2) are ineffective at inhibiting the negative control-induced migration, and 3) reduce or inhibit chemokine-induced THP-1 migration, are agents which fall within the scope of the invention.\nFor this assay, THP-1 cells were maintained at a density of 4×10^5 cells per ml in RPMI-1640 supplemented with 10% fetal calf serum+20 μM 2-mercaptoethanol. Chemotaxis was induced in a 96-well disposable chemotaxis chamber fitted with a […] polycarbonate filter (PVP free, ChemoTX, Neuroprobe Inc., Cabin John). Twenty-nine μl of chemoattractant (recombinant human chemokine; 50 ng/ml, i.e., 5.9 nM) or control (100 ng/ml TGFβ) was added to the lower compartment of each well. The framed filter was aligned with the holes in the corner of the filter frame and placed over the wells. Five×10^4 THP-1 cells in 25 μl of RPMI-1640 culture media were added to the upper compartment. Peptides were dissolved in Milli Q water and then serially diluted in culture medium. In most cases, the serially diluted peptides were added to the upper compartment of the chemotaxis chamber. The chamber was incubated at 37° C. in a humidified atmosphere of 5% CO2 for 4 hours.\nAfter incubation, the cells were gently removed from the top of the filter with a pipette, 20 μl of 20 mM EDTA in PBS was added into each top well, and the mixture was incubated for 20 minutes at 4° C. The filter was then carefully flushed with media using a gentle flow, and removed. […]"}, "[2]": {"system": "chemokine-induced migration of peripheral blood monocytes", "assay": "Chemokine-induced migration of freshly prepared peripheral blood monocytes, each of the four chemokines", "format": "cell-based, human", "settings": "100 μM; peripheral blood monocytes from 3 donors", "description": "Agents may also be screened in a chemotactic assay which employs human neutrophils, eosinophils, mast cells, basophils, platelets, lymphocytes or monocytes. For monocytes, 9 mls of fresh blood are transferred to a tube containing 1 ml of 3.8% sodium citrate, and left at room temperature for 15 minutes. Five mls of this anti-coagulated blood are carefully layered over 3.5 ml Polymorphprep® (Nycomed Pharma, Oslo), and centrifuged at 500 g for 35 minutes per the manufacturer's instructions. The top band at the sample/medium interface contains monocytes. The monocytes are carefully removed with a glass pipette, and reconstituted to the original volume (5 ml). The cells are washed with PBS plus 10% fetal calf serum, and centrifuged at 400 g for 10 minutes. The washing step is repeated three times before the cells are counted. Cells are resuspended at 1×10^7 cells/ml in RPMI-1640+10% fetal calf serum (FCS). The monocytes are cultured for two days at 37° C. in a humidified atmosphere of 5% CO2.\nOn day 2, the cells are counted, spun down, and reconstituted to 1×10^7 cells/ml in Gey's balanced salt solution+1 mg/ml bovine serum albumin (BSA). […]"}},
  "data": [
    {"sequence": "EICADPKQKWVQ [Peptide 3]", "values": [
      {"measurement": "effect on MCP-1 induced THP-1 migration at concentrations above 50 μM", "setting": "[1]", "result": "abolished all of the MCP-1 induced THP-1 migration"},
      {"measurement": "inhibition of monocyte migration induced with each of the four chemokines", "setting": "[2]", "result": "> 95", "unit": "%"}
    ]}
  ]
}
